Laboratory results reported in PubChem BioAssay AID248 (DTP/NCI, 2004).
Toxic doses and inconclusive results are not listed.

System: L1210 leukemia ip in BDF1 mice, survival T/C
Assay: NCI In Vivo Anticancer Drug Screen. Data for tumor model L1210 Leukemia (intraperitoneal) in B6D2F1 (BDF1) mice
Details: endpoint: mean survival time, higher = longer survival
How it was run: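 Antitumor effect is assessed in tumor-bearing animals. Survival in the compound arm is compared with a vehicle-dosed control arm and expressed as their quotient.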

[1] = dose: 100.0 mg/kg/injection, schedule: Q04DX003 (ip), vehicle: saline
[2] = dose: 400.0 mg/kg/injection, schedule: Q04DX003 (ip), vehicle: saline
[3] = dose: 100.0 mg/kg/injection, schedule: Q04DX003 (ip), vehicle: Klucel (hydroxypropylcellulose) (HPC)
[4] = dose: 200.0 mg/kg/injection, schedule: Q04DX003 (ip), vehicle: Klucel (hydroxypropylcellulose) (HPC)
[5] = dose: 400.0 mg/kg/injection, schedule: Q04DX003 (ip), vehicle: Klucel (hydroxypropylcellulose) (HPC)
[6] = dose: 100.0 mg/kg/injection, schedule: Q01DX005 (ip), vehicle: saline
[7] = dose: 100.0 mg/kg/injection, schedule: Q01DX009 (ip), vehicle: saline with Tween-80
[8] = dose: 100.0 mg/kg/injection, schedule: Q01DX009 (ip), vehicle: Klucel (hydroxypropylcellulose) (HPC)
[9] = dose: 200.0 mg/kg/injection, schedule: Q01DX009 (ip), vehicle: Klucel (hydroxypropylcellulose) (HPC)
[10] = dose: 100.0 mg/kg/injection, schedule: Q01DX009 (ip), vehicle: other
[11] = dose: 200.0 mg/kg/injection, schedule: Q01DX009 (ip), vehicle: other
[12] = dose: 400.0 mg/kg/injection, schedule: Q01DX009 (ip), vehicle: other
[13] = dose: 10.0 mg/kg/injection, schedule: Q01DX001 (ip), vehicle: saline
[14] = dose: 20.0 mg/kg/injection, schedule: Q01DX001 (ip), vehicle: saline
[15] = dose: 100.0 mg/kg/injection, schedule: Q01DX001 (ip), vehicle: saline

`CCCCCCCC(=O)N(CCO)CCO` was tested, and the T/C (dose: 100.0 mg/kg/injection, schedule: Q04DX002 (ip), vehicle: other) was 96 % of control, the T/C (dose: 200.0 mg/kg/injection, schedule: Q04DX002 (ip), vehicle: other) was 101 % of control and the T/C (dose: 400.0 mg/kg/injection, schedule: Q04DX002 (ip), vehicle: other) was 96 % of control.
In the case of `CC(/C=N/Nc1nnc(N/N=C/C(C)=C/c2ccccc2)c2ccccc12)=C\c1ccccc1`, the T/C (dose: 50.0 mg/kg/injection, schedule: Q01DX001 (ip), vehicle: carboxymethylcellulose (CMC)) is reported as 94 % of control, the T/C (dose: 100.0 mg/kg/injection, schedule: Q01DX001 (ip), vehicle: carboxymethylcellulose (CMC)) is reported as 102 % of control and the T/C (dose: 200.0 mg/kg/injection, schedule: Q01DX001 (ip), vehicle: carboxymethylcellulose (CMC)) is reported as 96 % of control. For the same compound, the T/C (dose: 400.0 mg/kg/injection, schedule: Q01DX001 (ip), vehicle: carboxymethylcellulose (CMC)) was 112 % of control.
For `O=S(=O)(O)c1ccc2c(O)cc(S(=O)(=O)O)cc2c1`, the T/C (dose: 100.0 mg/kg/injection, schedule: Q01DX009 (ip), vehicle: saline) was 106 % of control, the T/C [1] was 95 % of control and the T/C (dose: 200.0 mg/kg/injection, schedule: Q01DX009 (ip), vehicle: saline) was 112 % of control. For the same compound, the T/C (dose: 400.0 mg/kg/injection, schedule: Q01DX009 (ip), vehicle: saline) was 103 % of control and the T/C [2] was 100 % of control.
`O=c1[nH]c(Cc2ccccc2)c(N=Nc2ccccc2)c(=O)[nH]1` was tested, and the T/C (dose: 25.0 mg/kg/injection, schedule: Q01DX001 (ip), vehicle: saline with Tween-80) was 93 % of control, the T/C (dose: 50.0 mg/kg/injection, schedule: Q01DX001 (ip), vehicle: saline with Tween-80) was 93 % of control and the T/C (dose: 100.0 mg/kg/injection, schedule: Q01DX001 (ip), vehicle: saline with Tween-80) was 93 % of control.
In the case of `C=CCP(C)(=O)CC=C`, the T/C (dose: 100.0 mg/kg/injection, schedule: Q04DX002 (ip), vehicle: saline) is reported as 102 % of control, the T/C (dose: 200.0 mg/kg/injection, schedule: Q04DX002 (ip), vehicle: saline) is reported as 108 % of control and the T/C (dose: 400.0 mg/kg/injection, schedule: Q04DX002 (ip), vehicle: saline) is reported as 94 % of control.
With `CC(C(=O)c1cccs1)C(O)(C(F)(F)F)C(F)(F)F` (stereo not drawn) the T/C [3] was 95 % of control, the T/C [4] was 95 % of control and the T/C [5] was 103 % of control.
With `O=[N+]([O-])c1ccccc1N=Nc1c(O)[nH]c2ccccc12` the T/C (dose: 100.0 mg/kg/injection, schedule: Q01DX001 (ip), vehicle: other) was 102 % of control, the T/C (dose: 200.0 mg/kg/injection, schedule: Q01DX001 (ip), vehicle: other) was 98 % of control and the T/C (dose: 400.0 mg/kg/injection, schedule: Q01DX001 (ip), vehicle: other) was 102 % of control.
For `O=C(Nc1cccnc1)c1ccc([N+](=O)[O-])s1`, the T/C (dose: 50.0 mg/kg/injection, schedule: Q01DX005 (ip), vehicle: saline) was 102 % of control, the T/C [6] was 117 % of control and the T/C (dose: 400.0 mg/kg/injection, schedule: Q01DX005 (ip), vehicle: saline) was 173 % of control.
`Cc1cc(N(CCCl)CCCl)ccc1C=Nc1ccc(-c2csc(Cc3ccccc3)n2)c(Cl)c1` was tested, and the T/C (dose: 100.0 mg/kg/injection, schedule: Q01DX001 (sc), vehicle: carboxymethylcellulose (CMC)) was 100 % of control, the T/C (dose: 200.0 mg/kg/injection, schedule: Q01DX001 (sc), vehicle: carboxymethylcellulose (CMC)) was 113 % of control and the T/C (dose: 400.0 mg/kg/injection, schedule: Q01DX001 (sc), vehicle: carboxymethylcellulose (CMC)) was 100 % of control.
`COc1ccc(C2C3CC4C(OC(=O)C42)C3I)cc1` (stereo not drawn) was tested, and the T/C [7] was 97 % of control, the T/C (dose: 100.0 mg/kg/injection, schedule: Q04DX003 (ip), vehicle: saline with Tween-80) was 95 % of control and the T/C (dose: 200.0 mg/kg/injection, schedule: Q01DX009 (ip), vehicle: saline with Tween-80) was 98 % of control. The T/C (dose: 200.0 mg/kg/injection, schedule: Q04DX003 (ip), vehicle: saline with Tween-80) was 95 % of control, the T/C (dose: 400.0 mg/kg/injection, schedule: Q01DX009 (ip), vehicle: saline with Tween-80) was 88 % of control and the T/C (dose: 400.0 mg/kg/injection, schedule: Q04DX003 (ip), vehicle: saline with Tween-80) was 87 % of control.
With `CCCCOP(=O)(C=C(C(C)=O)C(C)=O)OCCCC` the T/C [3] was 95 % of control, the T/C [4] was 119 % of control and the T/C [5] was 97 % of control.
`O=c1cc(CS)[nH]c(=O)[nH]1` was tested, and the T/C [1] was 98 % of control, the T/C (dose: 200.0 mg/kg/injection, schedule: Q04DX003 (ip), vehicle: saline) was 101 % of control and the T/C [2] was 98 % of control.
`CCN(CC)C(=O)OCCN1C(=O)C2C3CCC(O3)C2C1=O` (stereo not drawn) was tested, and the T/C [3] was 93 % of control, the T/C [4] was 92 % of control and the T/C [5] was 93 % of control.
For `N=C(N)c1cccc(OCc2ccccc2)c1`, the T/C (dose: 100.0 mg/kg/injection, schedule: Q01DX001 (ip), vehicle: Klucel (hydroxypropylcellulose) (HPC)) was 90 % of control, the T/C (dose: 200.0 mg/kg/injection, schedule: Q01DX001 (ip), vehicle: Klucel (hydroxypropylcellulose) (HPC)) was 94 % of control and the T/C (dose: 400.0 mg/kg/injection, schedule: Q01DX001 (ip), vehicle: Klucel (hydroxypropylcellulose) (HPC)) was 94 % of control.
In the case of `CCSC1C(OC(C)=O)C(C(COC(C)=O)OC(C)=O)OC1n1cc(C)c(=O)[nH]c1=O` (stereo not drawn), the T/C [6] is reported as 98 % of control and the T/C (dose: 200.0 mg/kg/injection, schedule: Q01DX005 (ip), vehicle: saline) is reported as 100 % of control.
In the case of `O=C(O)c1cc(C(F)(F)F)nc2c1ccc1ccccc12`, the T/C (dose: 75.0 mg/kg/injection, schedule: Q01DX001 (ip), vehicle: saline) is reported as 98 % of control and the T/C (dose: 150.0 mg/kg/injection, schedule: Q01DX001 (ip), vehicle: saline) is reported as 98 % of control.
With `Cc1ccc2c(N=Nc3ccc(N(C)C)cc3)cccc2n1` the T/C (dose: 25.0 mg/kg/injection, schedule: Q01DX009 (ip), vehicle: saline with Tween-80) was 93 % of control, the T/C (dose: 50.0 mg/kg/injection, schedule: Q01DX009 (ip), vehicle: saline with Tween-80) was 93 % of control and the T/C [7] was 98 % of control.
With `C=CCC(C#N)(CCN(C)C)c1cccc2ccccc12` (stereo not drawn) the T/C [8] was 99 % of control and the T/C [9] was 111 % of control.
`COc1cc([N+](=O)[O-])ccc1NC(=O)C(Br)C(Br)c1ccccc1` (stereo not drawn) was tested, and the T/C [10] was 110 % of control, the T/C [11] was 96 % of control and the T/C [12] was 88 % of control.
`CCOC(=N)Cc1ccccc1` was tested, and the T/C (dose: 12.5 mg/kg/injection, schedule: Q04DX002 (ip), vehicle: Klucel (hydroxypropylcellulose) (HPC)) was 100 % of control, the T/C (dose: 25.0 mg/kg/injection, schedule: Q04DX002 (ip), vehicle: Klucel (hydroxypropylcellulose) (HPC)) was 103 % of control and the T/C (dose: 50.0 mg/kg/injection, schedule: Q04DX002 (ip), vehicle: Klucel (hydroxypropylcellulose) (HPC)) was 106 % of control. The T/C (dose: 100.0 mg/kg/injection, schedule: Q04DX002 (ip), vehicle: Klucel (hydroxypropylcellulose) (HPC)) was 110 % of control.
In the case of `OC1C=C(Br)C2CCC1CC2` (stereo not drawn), the T/C [10] is reported as 113 % of control, the T/C (dose: 100.0 mg/kg/injection, schedule: Q04DX003 (ip), vehicle: other) is reported as 96 % of control and the T/C [11] is reported as 100 % of control. For the same compound, the T/C (dose: 200.0 mg/kg/injection, schedule: Q04DX003 (ip), vehicle: other) was 107 % of control, the T/C [12] was 92 % of control and the T/C (dose: 400.0 mg/kg/injection, schedule: Q04DX003 (ip), vehicle: other) was 100 % of control.
In the case of `C[N+](C)(CCC#N)Cc1ccc(C[N+](C)(C)CCC#N)cc1`, the T/C (dose: 5.0 mg/kg/injection, schedule: Q01DX001 (ip), vehicle: saline) is reported as 90 % of control, the T/C [13] is reported as 95 % of control and the T/C [14] is reported as 95 % of control.
For `NC1=NC(c2ccccc2)N(c2ccccc2)C(N)=N1` (stereo not drawn), the T/C (dose: 50.0 mg/kg/injection, schedule: Q01DX001 (ip), vehicle: saline) was 99 % of control and the T/C [15] was 104 % of control.
In the case of `Cc1ccc([N+](=O)[O-])cc1NC(=O)OCc1ccco1`, the T/C [8] is reported as 103 % of control, the T/C [9] is reported as 97 % of control and the T/C (dose: 400.0 mg/kg/injection, schedule: Q01DX009 (ip), vehicle: Klucel (hydroxypropylcellulose) (HPC)) is reported as 94 % of control.
`c1ccc(-n2ncn[n+]2-c2ccccc2)cc1` was tested, and the T/C [13] was 98 % of control, the T/C [14] was 90 % of control and the T/C (dose: 40.0 mg/kg/injection, schedule: Q01DX001 (ip), vehicle: saline) was 95 % of control. For the same compound, the T/C (dose: 80.0 mg/kg/injection, schedule: Q01DX001 (ip), vehicle: saline) was 109 % of control.
With `NC(=S)N/N=C1\CC(c2ccccc2)Oc2ccccc21` (stereo not drawn) the T/C [15] was 88 % of control.
